Read-outs that look alike come from different tables or passages of the source. Marks after values point to notes of the source that are not given here.
Experiments:
[1] = test system: APP Tg mouse; assay: Novelty object recognition test, APP transgenic mouse; conditions: for Index for object discrimination: intraperitoneal, five times a week for 12 weeks
[2] = test system: hamsters with cerebellar ataxia; assay: Histological evaluation of cerebellum of hamsters with cerebellar ataxia; format: in vivo, hamster; conditions: 10-weeks of age; for Cerebellar volume (mm^3) / Number of Purkinje cells (cells) / Number of granular cells (cells/20000 μm^2): cerebellar ataxia hamsters; for Number of subject (head) with apparent demyelination in cerebellar white matter: five heads per group
Description: (§1) Since NK-4 was confirmed to have a neurodegenerative inhibitory action in Experiment 1, hamsters with cerebellar ataxia (cerebellar ataxia is called “cerebellar A” and hamsters with cerebellar ataxia are called “hamsters with cerebellar A”, hereinafter) as a suitable model for human neurodegenerative diseases (e.g., spinal cerebellar degeneration) were subjected to examine the influence of NK-4 administration on their behaviors and brain tissues. Twenty-five hamsters with natural mutation (Nna1 inhibition), which are known to lose Purkinje's cells after three-weeks of age and then induce a spontaneous onset of kinetic motor ataxia after seven-weeks of age (see Akita K. et al., “J. Neurogenetics”, Vol. 21, pp. 19-29, 2007), had been fed at Hayashibara Biochemical Laboratories., Inc., Okayama, Japan, were randomly allocated to the test groups 1 to 5, five heads in each group, as shown in Table 2. Prior to the onset of cerebellar A (at three-weeks of age), PBS was started to administer to the hamsters in the test group 1 at a dose of 10 ml/kg/day. Prior to the onset of cerebellar A (at three-weeks of age), NK-4 was started to be administered to the hamsters in the test groups 2 to 4 at a daily dose of 20 μg/kg, 100 μg/kg or 500 μg/kg. “IGF-1, human, a product name of insulin-like growth factor, commercialized by Assaypro LLC, MO, USA. These administered ingredients were intraperitoneally administered daily to hamsters once a day up to 10-weeks of age. The degree of symptom of cerebellar A and the improvement effect on the symptom by NK-4 were evaluated with an index of improvement in motor coordination of hamsters by conducting once a week the later described rotarod test and the slant tolerance test. At the age of 10-weeks, the hamsters were subjected to counting the falling down frequency and extracted their brains, which were then histologically evaluated. In parallel, the concentration of glutamic acid in the bloods and cerebrospinal fluids (CSF) of the hamsters was assayed. As a test group 6, five normal hamsters, with the same age as the hamsters with cerebellar A used in the test groups 1 to 5, were provided and tested similarly as the hamsters with cerebellar A in such a manner of intraperitoneally administering PBS to them at a dose of 10 ml/kg/day once a day up to 10-weeks of age.
Hamsters, 10-weeks of age, after completion of test on coordinated movement such as a confirmation of falling down frequency were intraperitoneally received 50 mg/kg pentobarbital, bled from their postcavas to let them die, and extracted their cerebra and cerebella, followed by fixing them with a 10% by volume of formalin solution. The resulting cerebra and cerebella were photographed with a digital camera apart from a prescribed high position and measured diameters in sagittal and horizontal directions for each photograph. The volumes of cerebra and cerebella were respectively determined by calculating with the formula, (length of sagittal direction)^2×(length of horizontal direction)×0.5; and the data from five heads in each group were averaged. The hamsters with cerebella A used in this experiment are known to reduce cell density of Purkinje's cells and granular cells. Cerebellar slices, which had been cut out in sagittal direction, were stained with hematoxylin-eosin stain, and microscopically observed to count the total number of Purkinje's cells within a Purkinje's cell layer ([…] I to X) and the number of granular cells per unit area, and to confirm subjects in which demyelination was observed within their cerebellar white matters. The results are in Table 5 in parallel.

[3] = test system: hamsters with cerebellar ataxia; assay: Concentration of glutamic acid in cerebrospinal fluid (CSF); format: in vivo, hamster; conditions: 10-weeks of age
Description: as §1
The content of glutamic acid, which is used for synthesizing gamma-amino butyric acid (GABA) as a main excitatory neurotransmitter and inhibitory neurotransmitter that regulate higher-order functions such as memory/learning in mammalian central nervous system, was assayed. In harvesting the brains from the above hamsters, they were blooded from their postcavas, followed by collecting CSF for use in the later described assay for glutamic acid concentration. […]

[4] = test system: intracellular cyclic adenosine monophosphate (AMP); assay: Increment of intracellular cyclic AMP; format: cell-based
[5] = test system: PC12-HS cells; conditions: 6-hydroxy dopa, 24 hours
Description: 6-Hydroxy dopa was used as a cytotoxic agent. Similarly as in Experiment 1, PC12-HS cells, which had been cultured in D-MEM medium supplemented with 10 v/v % FBS, were inoculated to 96-well microplates by 2×10^4/100 μl/well. […] Thereafter, the cells were fixed with 10% glutaraldehyde and the absorbance at 650 nm was measured by conventional dye-uptake method using methylene blue.

[6] = test system: APP Tg mouse; assay: Passive avoidance test, APP transgenic mouse; format: in vivo; conditions: for Passive avoidance reaction: intraperitoneal, five times a week for 12 weeks
[7] = i.p. five times a week for 12 weeks

`CCN1C=CC(=CC=C(C=Cc2cc[n+](CC)c3ccccc23)c2cc[n+](CC)c3ccccc23)c2ccccc21.[I-].[I-]` [NK-4] was tested, and the “Index for object discrimination” value ([1]; dose 100 μg/kg body weight) was 0.20 ± 0.06, the “Index for object discrimination” value ([1]; dose 500 μg/kg body weight) was 0.30 ± 0.05 and the adverse effect [1, 7] was “No adverse effect”. The “object discrimination test (in words)” value [1, 7] was “improved the dementia”, the “Cerebellar volume (mm^3)” value ([2]; 20 μg/kg body weight) was 76.0 ± 8.2* mm^3 and the “Number of Purkinje cells (cells)” value ([2]; 20 μg/kg body weight) was 187 ± 37 cells. The “Number of granular cells (cells/20000 μm^2)” value (“Number of granular cells” below) ([2]; 20 μg/kg body weight) was 408 ± 8 cells/20000 μm^2, the “Cerebellar volume (mm^3)” value ([2]; 100 μg/kg body weight) was 77.0 ± 2.8* mm^3 and the “Number of Purkinje cells (cells)” value ([2]; 100 μg/kg body weight) was 252 ± 29 cells. For the same compound, the “Number of granular cells” value ([2]; 100 μg/kg body weight) was 419 ± 6 cells/20000 μm^2, the “Cerebellar volume (mm^3)” value ([2]; 500 μg/kg body weight) was 80.5 ± 10.8* mm^3 and the “Number of Purkinje cells (cells)” value ([2]; 500 μg/kg body weight) was 231 ± 41 cells. For the same compound, the “Number of granular cells” value ([2]; 500 μg/kg body weight) was 436 ± 7 cells/20000 μm^2, the “Number of subject (head) with apparent demyelination in cerebellar white matter” value (from here on “Number of subject (head)”) ([2]; 20 μg/kg body weight) was 4 head and the “Number of subject (head)” value ([2]; 100 μg/kg body weight) was 1 head. The “Number of subject (head)” value ([2]; 500 μg/kg body weight) was 0 head, the “Concentration of glutamic acid in cerebrospinal fluid” value (shortened to “Concentration of glutamic acid”) ([3]; 20 μg/kg body weight) was 7.2 ± 0.8 µM and the “Concentration of glutamic acid” value ([3]; 100 μg/kg body weight) was 8.7 ± 2.6 µM. The “Concentration of glutamic acid” value ([3]; 500 μg/kg body weight) was 9.5 ± 2.9 µM, the “increment of intracellular cyclic adenosine monophosphate (AMP)” value [4] was “inducing the increment of intracellular cyclic adenosine monophosphate (AMP)” and the “suppression of cytotoxicity by 6-hydroxy dopa (in words)” value [5] was “significantly suppressed”. For the same compound, the “Survival-cell percentage (%)” value ([5]; compound 0.83 ng/ml) was 59 ± 3%, the “Survival-cell percentage (%)” value ([5]; compound 3.3 ng/ml) was 65 ± 4% and the “Survival-cell percentage (%)” value ([5]; compound 13 ng/ml) was 69 ± 6 %. The “Survival-cell percentage (%)” value ([5]; compound 50 ng/ml) was 70 ± 6 %, the “Survival-cell percentage (%)” value ([5]; compound 200 ng/ml) was 76 ± 3 % and the “Survival-cell percentage (%)” value ([5]; compound 800 ng/ml) was 92 ± 4 %. The “Passive avoidance reaction” value ([6]; dose 100 μg/kg body weight) was 280 ± 20 s, the “Passive avoidance reaction” value ([6]; dose 500 μg/kg body weight) was 243 ± 25 s and the “passive avoidance test (in words)” value [6, 7] was “improved the dementia”.

From patent US20120035187A1 (priority 2009, published 2012)
